Data set [1] concerns ClbPFL (full-length ClbP). Put plainly: In vitro cleavage of synthetic substrates by ClbPFL, LC-MS detection. To be noted: LC-MS detection of cleavage product. It is filed as biochemical, E. coli. On the procedure:
(§1) The top graph of FIG. 2A depicts LC-MS detection of the prodrug scaffold ([M+H]^+: 343.2597 m/z) released by the hydrolysis of (1) by ClbP in vitro. Reactions were carried out in 50 mM Tris pH 8.0, 200 mM NaCl, 0.1 μM enzyme. 0.02% w/v DDM was added for all reactions involving full-length ClbP (Error bars are SD, n=3). The bottom graph of FIG. 2B depicts kinetic analysis of ClbP acting on synthetic precolibactin-mimic substrate (1). Note that this substrate is insoluble above 200 μM under assay conditions. Rates were calculated by quenching reactions in 1-minute intervals in methanol and quantifying the amount of substrate cleaved by derivatization of the L-alanine product with o-phthaldialdehye (OPA) and fluorescence detection (see Examples) (Error bars are SD, n=3). Substrate is insoluble above 200 μM under assay conditions. All kinetics experiments are averages of 3 independent replicates, reactions were carried out in 50 mM Sodium Phosphate pH 8.0, 200 mM NaCl, 0.02% w/v DDM, 0.1 μM enzyme. The bottom graph of FIG. 2B depicts the approach and substrates sampled in this SAR study. All kinetics experiments are averages of 3 independent replicates, reactions were carried out in 50 mM Sodium Phosphate pH 8.0, 200 mM NaCl, 0.02% w/v DDM, 0.1 μM ClbP-FL (full length) (also referred to herein as ClbPFL). All errors are ±SD.
Optical densities of E. coli cultures were determined with a DU 730 Life Sciences UV/Vis spectrophotometer (Beckman Coulter, Indianapolis, Ind.) by measuring absorbance at 600 nm. Ultracentrifugation was performed on a Beckman-Coulter Optima XE-90 Ultracentrifuge fitted with a type 45 Ti rotor in 70 mL polycarbonate tubes. Solvents and formic acid used for LC-MS were B & J Brand High Purity Solvents (Honeywell Research Chemicals). High-resolution LC-MS analyses of enzyme assays and synthetic compounds were performed on an Agilent 6530 Q-TOF Mass Spectrometer fitted with a dual-spray electrospray ionization (ESI) source. The capillary voltage was set to 3.5 kV, the fragmentor voltage to 175 V, the skimmer voltage to 65 V, and the Oct 1 RF to 750 V. The drying gas temperature was maintained at 275° C. with a flow rate of 8 L/min and a nebulizer pressure of 35 psi. A standard calibrant mix was introduced continuously during all experiments via the dual-spray ESI source. For analytical liquid chromatography, unless otherwise noted, experiments were performed using an Agilent Technologies 1200 series LC on a Hypersil GOLDaq™ C18 reverse phase column (50×3 mm, Thermo Scientific) with the following elution conditions: a gradient from 35% solvent A:65% solvent B to 100% solvent A over 5 minutes, holding at 100% A for 2 minutes, followed by a gradient back to 35% solvent A over 1 minute and holding at 35% solvent A for 3.5 minutes (solvent A: acetonitrile+0.1% formic acid; solvent B: water+0.1% formic acid; flow rate=0.4 mL/minute; injection volume=10 μL). All experiments were performed in positive ion mode, and the masses detected corresponded to [M+H]+ ions unless otherwise noted. Masses were found within 5 ppm of the expected [M+H]+ masses.
For all in vitro assays involving ClbPFL and ClbFL-S95A “Tris assay buffer” refers to a buffer composed of 50 mM Tris, 200 mM NaCl, 0.02% w/v DDM, pH 8.0. Likewise, “phosphate assay buffer” refers to 50 mM sodium phosphate, 200 mM NaCl, 0.02% w/v DDM, pH 8.0.

Another data set relates to ClbPFL-S95A. Put plainly: In vitro cleavage of synthetic substrates by inactive mutant, LC-MS detection. It is filed as biochemical, E. coli. On the procedure:
as §1
(§2) Optical densities of E. coli cultures were determined with a DU 730 Life Sciences UV/Vis spectrophotometer (Beckman Coulter, Indianapolis, Ind.) by measuring absorbance at 600 nm. Ultracentrifugation was performed on a Beckman-Coulter Optima XE-90 Ultracentrifuge fitted with a type 45 Ti rotor in 70 mL polycarbonate tubes. Solvents and formic acid used for LC-MS were B & J Brand High Purity Solvents (Honeywell Research Chemicals). High-resolution LC-MS analyses of enzyme assays and synthetic compounds were performed on an Agilent 6530 Q-TOF Mass Spectrometer fitted with a dual-spray electrospray ionization (ESI) source. […] All experiments were performed in positive ion mode, and the masses detected corresponded to [M+H]+ ions unless otherwise noted. […]

The subject of a further data set is ClbPpep. Put plainly: In vitro cleavage of synthetic substrates by isolated peptidase domain, LC-MS detection. It is filed as biochemical, E. coli. On the procedure: as §1, §2
For another data set, the system named is ClbPFL. Put plainly: In vitro kinetics assay with ClbPFL (o-phthaldialdehyde derivatization). It is filed as biochemical, E. coli. On the procedure:
In vitro kinetics assays with ClbPFL (comparison of substrates 2, 3, and 4 using o-phthaldialdehyde derivatization): Assays were run in triplicate in 1.5 mL deep-well plates. ClbPFL-CHis10 was defrosted from −80° C. stocks on ice, then buffer exchanged into phosphate assay buffer using Zeba Spin 40K MWCO desalting columns (ThermoFisher Scientific). The enzyme was then diluted to 0.6 μM in phosphate assay buffer and 50 μL of this stock was deposited in the appropriate wells. The substrate of interest was prepared in a 2-fold dilution series in phosphate assay buffer. Reactions were initiated by the addition of 250 μL of substrate stock to each assay well to a final concentration of 0.1 μM ClbP, 12.5-200 μM substrate, 3% DMSO and incubated at 25° C. Reaction mixtures were pipetted briefly to mix. […] 50 μL of each supernatant from the quenched reactions and standard curves were then transferred to the appropriate wells, pipetted once to mix, and then fluorescence was immediately measured on a plate reader (Bio-Tek Synergy HTX multimode plate reader, measurement settings −360/40 nm excitation filter, 440/20 nm emission filter, detector gain: 35). Fluorescence was measured every 30 seconds for 10 minutes and the maximum value achieved for each well was used for calculations. […]

Data set [2] can be described thus: Solubility and membrane permeability as observed in the assays. To be noted: under assay conditions. It is filed as physicochemical.

SMILES strings stand for the structures. “Also recorded” adds a separate entry of the source. Like-named read-outs stand apart in the source and are kept apart here.

With `CCCCCCCCCCCCCC(=O)N[C@H](CC(N)=O)C(=O)N[C@@H](C)CCC(=O)CC(=O)NC1(C(=O)O)CC1` [(1)], the “cleavage by ClbPFL in vitro” value in data set [1] is recorded as “rapidly in vitro”. Further, the “cleavage by ClbPFL-S95A in vitro” value with ClbPFL-S95A is “no cleavage activity”; in the data set with ClbPFL-S95A (listed as 2) it was “no activity”. Further, the entries for the “cleavage by ClbPpep in vitro” value in the data set with ClbPpep and with ClbPpep (listed as 2) were “no cleavage activity” and “no activity; also recorded: cannot process”, respectively. For the same compound, in the data set on ClbPFL, the “kinetic parameters / hydrolysis efficiency compared with the reference substrate” value is “comparable”. In data set [2], this compound yielded a solubility limit of no more than 200 µM.

The record behind these values is US11040951B2, “Methods and compositions relating to genotoxin colibactin” (PRESIDENT AND FELLOWS OF HARVARD COLLEGE, priority 2018, dated 2021).
